{"source": "patent US5498522A", "about": "“Methods for the use of spermidine/spermine N^1 -acetyltransferase as a prognostic indicator and/or a tumor response marker” (priority 1993, dated 1996)", "key": {"[1]": {"tested_on": "ornithine decarboxylase (ODC)", "conditions": "in-vitro; cited from earlier work"}, "[2]": {"tested_on": "S-adenosylmethionine decarboxylase (SAMDC)", "conditions": "in-vitro; cited from earlier work"}, "[3]": {"tested_on": "spermidine/spermine N^1 -acetyltransferase (SSAT)", "assay": "SSAT induction in cultured human tumor cell lines in-vitro", "type": "cell-based", "conditions": "for SSAT induction (FIG. 5, words) / SSAT: 48 hours", "method": "To illustrate this embodiment, three polyamine analogs comprising bis-ethyl spermine analogs were used to treat MALME-3 human melanoma cells cultured in-vitro, and MALME-3 cells implanted as human xenografts in the athymic nude mouse model (Bernacki et al., 1992, supra). For in-vitro treatment, MALME-3 cells were maintained as a monolayer culture growing in RPMI 1640 containing 2% N-2-hydroxy-piperazine-N^1 -ethanesulfonic acid/3-N-morpholinopropanesulfonic acid pH 7.4 as a buffer, 1 mM aminoguanidine as an inhibitor of serum oxidase, and 10% of a semidefined serum substitute. Cells were seeded at 2×10^5 cells/T-75 flask and incubated 24 hours before treatment with analogues. Following treatment with 10 μM of the respective bis-ethyl spermine analog, control and treated cultured cells were trypsinized, washed, and suspended for enzyme assays and cell number determinations.\nIn accordance with the above methods for assaying the induction of SSAT levels in tumor cell lines treated in-vitro and xenografts treated in-vivo, the induction pattern also correlates fairly well amongst different clonal lines of a particular tumor type. This can be illustrated with melanoma clonal lines LOX, SH-1, PANUT-3, and MALME-3.\nIn accordance with the above methods for assaying the induction of SSAT levels in tumor cell lines treated in-vitro and xenografts treated in-vivo, the induction pattern also correlates fairly well amongst carcinomas of solid organs. This can be illustrated with malignant clonal lines A121, A549, and HT29.\nAs mentioned previously, cells from malignant solid tumor respond to polyamine analog therapy heterotypically. SSAT induction and antitumor response may vary not only among the solid tumor tissue type, but also with the clonal line of tumor of a particular solid tissue type. However, a correlation between the level of induction of SSAT and the potency of antitumor response has been observed in tumors of a particular solid tissue type. For example, seven human melanoma cell lines were assayed in-vitro for their response, as determined by cell growth and level of SSAT induction, to 10 μM BESPM at 48 hours post-treatment. As summarized in FIG. 5, growth among the cell lines decreases as SSAT induction increases.\nTo illustrate this embodiment, LOX and MALME-3 cell cultures were treated for 48 hours with 10 μm BESPM. The cells from each culture were harvested and assayed for SSAT activity. Media samples were prepared by treating the samples with 50% trichloroacetic acid to give a final concentration of 10% and then centrifuged at 15,000×g for 10 minutes. The supernatant was then filtered through a 0.22-μm filter, extracted with several volumes of ether, lyophilized, and resuspended in 10% trichloroacetic acid. N^1 -acetylspermidine levels of cells and media samples were then measured by use of high-pressure liquid chromatography. […] Similarly, N^1 -acetylspermidine levels from MALME-3 control cells, media from control cell cultures, and treated MALME-3 cells contained minimal levels of N^1 -acetylspermidine."}, "[4]": {"assay": "tolerated dose / host toxicity in xenograft-bearing mice", "conditions": "mouse, in vivo, every 8 hours for 6 days, read-out: tolerated dose (higher doses were toxic)", "method": "[…] where 1 represents length; w--width; and h--height. Tumor sizes were monitored 2 times/week until the median volume (V=0.4(a^2 ×b) where a is the smaller of the two perpendicular tumor diameters). As an indication of drug toxicity, animal weights were also recorded at the time of tumor volume measurement. Statistical analyses were performed on mouse tumor size and weight parameters by using the Mann-Whitney test.\nAs illustrated in Table 1 with MALME-3 human melanoma cells, the rank order effectiveness of three polyamine analogs in inducing SSAT levels both in-vitro and in-vivo were BENSPM>BESPM>BEHSPM, with substantial differences in induction between them. The same three polyamine analogs were analyzed for their effectiveness in inducing a potent antitumor response in-vivo. Mice developing palpable tumors of a similar size were divided into different treatment groups comprising 5 mice per treatment group, and 10 control mice per treatment group. The treatment groups, and treatment regimen. per group, were as follows: BEHSPM: administered every 8 hours for a 6 day period with group 1 receiving 1.5 mg/kg; group 2 receiving 3.0 mg/kg; and group 3 receiving 6.0 mg/kg.\nBESPM: administered every 8 hours for a 6 day period with group 1 receiving 10 mg/kg; group 2 receiving 20 mg/kg; and group 3 receiving 40 mg/kg.\nBENSPM: administered every 8 hours for a 6 day period with group 1 receiving 20 mg/kg; group 2 receiving 40 mg/kg; and group 3 receiving 80 mg/kg.\nNote that the highest drug dosages for each analog approach the maximally tolerated dosage for that particular analog (for example, BEHSPM at 6 mg/kg; BESPM at 20 mg/kg; and BENSPN at 80 mg/kg were tolerated by treated animals, whereas higher doses were toxic). Tumor cells comprising the human xenograft were removed from two animals of each group and assayed for SSAT induction. […]"}}, "note": "“Also recorded” adds a separate entry of the source."}
{"smiles": "CCNCCCCNCCCCNCCCCNCC", "note": "[BEHSPM, N^1,N^14 -bis(ethyl)homospermine]", "values": [{"measurement": "ODC suppression", "setting": "[1]", "result": "similarly suppress ornithine and S-adenosyl-methionine decarboxylase levels"}, {"measurement": "SAMDC suppression", "setting": "[2]", "result": "similarly suppress ornithine and S-adenosyl-methionine decarboxylase levels"}, {"measurement": "SSAT induction in-vitro", "setting": "[3]; MALME-3 cells, 10 μM analog", "result": 1108, "unit": "pmol/min/10^6 cells"}, {"measurement": "MTD at 144 h", "setting": "[4]", "result": 6, "unit": "mg/kg"}]}
{"smiles": "CCNCCCNCCCNCCCNCC", "note": "[BENSPM, N^1,N^11 -bis(ethyl)norspermine]", "values": [{"measurement": "ODC suppression", "setting": "[1]", "result": "similarly suppress ornithine and S-adenosyl-methionine decarboxylase levels"}, {"measurement": "SAMDC suppression", "setting": "[2]", "result": "similarly suppress ornithine and S-adenosyl-methionine decarboxylase levels"}, {"measurement": "SSAT induction in-vitro", "setting": "[3]; A121 ovarian, 10 μm BENSPM", "result": "2,700 pmol/min/10^6 cells"}, {"measurement": "SSAT induction in-vitro", "setting": "[3]; A549 lung, 10 μm BENSPM", "result": "22,755 pmol/min/10^6 cells"}, {"measurement": "SSAT induction in-vitro", "setting": "[3]; HT29 colon, 10 μm BENSPM", "result": "3,640 pmol/min/10^6 cells"}, {"measurement": "SSAT induction in-vitro relative to BESPM", "setting": "[3]; MALME-3 cells, 10 μM", "result": "5 to 6", "unit": "fold"}, {"measurement": "MTD at 144 h", "setting": "[4]", "result": 80, "unit": "mg/kg"}]}
{"smiles": "CCNCCCNCCCCNCCCNCC", "note": "[BESPM, N^1,N^12-bis(ethyl)spermine]", "values": [{"measurement": "ODC suppression", "setting": "[1]", "result": "rapidly suppress ODC and SAMDC; also recorded: similarly suppress ornithine and S-adenosyl-methionine decarboxylase levels"}, {"measurement": "SAMDC suppression", "setting": "[2]", "result": "rapidly suppress ODC and SAMDC; also recorded: similarly suppress ornithine and S-adenosyl-methionine decarboxylase levels"}, {"measurement": "SSAT induction (FIG. 5, words)", "setting": "[3]; LOX and SH-1, 10 μM BESPM", "result": "lowest induction of SSAT levels"}, {"measurement": "SSAT", "setting": "[3]; LOX, 10 μM BESPM", "result": 120, "unit": "pmol/mg/min"}, {"measurement": "SSAT induction in-vitro", "setting": "[3]; LOX, 10 μm BESPM", "result": 171, "unit": "pmol/min/10^6 cells"}, {"measurement": "SSAT", "setting": "[3]; MALME-3, 10 μM BESPM", "result": "12,405 pmol/mg/min"}, {"measurement": "SSAT induction in-vitro", "setting": "[3]; MALME-3, 10 μm BESPM (Table 2)", "result": "19,520 pmol/min/10^6 cells"}, {"measurement": "SSAT induction (FIG. 5, words)", "setting": "[3]; MALME-3 and Ebey, 10 μM BESPM", "result": "highest SSAT activity"}, {"measurement": "SSAT induction in-vitro relative to BEHSPM", "setting": "[3]; MALME-3 cells, 10 μM", "result": "about 10 fold"}, {"measurement": "SSAT induction in-vitro", "setting": "[3]; PANUT-3, 10 μm BESPM", "result": "10,343 pmol/min/10^6 cells"}, {"measurement": "SSAT induction in-vitro", "setting": "[3]; SH-1, 10 μm BESPM", "result": 1100, "unit": "pmol/min/10^6 cells"}, {"measurement": "MTD at 144 h", "setting": "[4]", "result": 20, "unit": "mg/kg"}]}
